Measured values published in US10070645B2, “N-cycloalkyl-N-{[2-(1-substitutedcycloalkyl)phenyl]methylene}-(thio)carboxamide derivatives” (BAYER CROPSCIENCE AKTIENGESELLSCHAFT, priority 2013, dated 2018).

Assay: log P by HPLC on a reversed-phase column (C 18), EEC Directive 79/831 Annex V.A8
Format: physicochemical
Conditions: HPLC on reversed-phase column (C 18), 40° C., 0.1% aqueous formic acid and acetonitrile, linear gradient 10% to 90% acetonitrile
Experimental: In table 1, the log P values were determined in accordance with EEC Directive 79/831 Annex V.A8 by HPLC (High Performance Liquid Chromatography) on a reversed-phase column (C 18), using the method described below:
Temperature: 40° C.; Mobile phases: 0.1% aqueous formic acid and acetonitrile; linear gradient from 10% acetonitrile to 90% acetonitrile.
Calibration was carried out using unbranched alkan-2-ones (comprising 3 to 16 carbon atoms) with known log P values (determination of the log P values by the retention times using linear interpolation between two successive alkanones). lambda-max-values were determined using UV-spectra from 200 nm to 400 nm and the peak values of the chromatographic signals.

Row | logP | Compound
1 | 4.09 | Cn1nc(C(F)F)c(C(=O)N(Cc2cc(F)ccc2C2(C)CC2(Cl)Cl)C2CC2)c1F (racemic) [I.170]

Same assay, conditions: HPLC, reversed-phase column (C 18), 40° C., 0.1% aqueous formic acid and acetonitrile, linear gradient 10% to 90% acetonitrile

Row | Compound | logP
2 | CCC1(c2cc(C)ccc2CN(C(=O)c2c(C(F)F)nn(C)c2Cl)C2CC2)CC1 [I.105] | 4.74
3 | Cn1nc(C(F)F)c(C(=O)N(Cc2cc(Cl)ccc2C2(C(F)F)CC2)C2CC2)c1Cl [I.148] | 3.85
4 | CCC1(c2ccccc2CN(C(=S)c2c(C(F)F)nn(C)c2Cl)C2CC2)CC1 [I.099] | 5.00
5 | Cc1ccc(C2(C)CC2)c(CN(C(=O)c2c(C(F)F)nn(C)c2Cl)C2(C)CC2)c1 [I.077] | 4.63
6 | COc1cc(CN(C(=S)c2c(C(F)F)nn(C)c2F)C2CC2)c(C2(C)CC2)cc1OC [I.055] | 3.96
7 | COC1(c2ccc(Cl)cc2CN(C(=O)c2c(C(F)F)nn(C)c2Cl)C2CC2)CC1 [I.119] | 3.87
8 | C#CC1(c2ccc(Cl)cc2CN(C(=O)c2c(C(F)F)nn(C)c2Cl)C2CC2)CC1 [I.091] | 3.89
9 | CCC1(c2ccc(C)cc2CN(C(=O)c2c(C(F)F)nn(C)c2Cl)C2CC2)CC1 [I.112] | 4.77

Continued, values first:

Row | logP | Compound
10 | 5.26 | Cc1ccccc1-c1ccc(CN(C(=O)c2c(C(F)F)nn(C)c2F)C2CC2)c(C2(C)CC2)c1 [I.035]
11 | 3.85 | Cn1nc(C(F)F)c(C(=O)N(Cc2ccccc2C2(C)CC2)C2CC2)c1F [I.001]
12 | 3.33 | COc1cc(CN(C(=O)c2c(C(F)F)nn(C)c2F)C2CC2)c(C2(C)CC2)cc1OC [I.053]
13 | 5.42 | CC(C)CC1(c2cc(Cl)ccc2CN(C(=O)c2c(C(F)F)nn(C)c2F)C2CC2)CC1 [I.157]
14 | 4.01 | Cn1nc(C(F)F)c(C(=O)N(Cc2cc(F)c(F)cc2C2(C)CC2)C2CC2)c1F [I.048]
15 | 4.67 | CCC1(c2ccc(C(F)(F)F)cc2CN(C(=O)c2c(C(F)F)nn(C)c2F)C2CC2)CC1 [I.108]
16 | 5.14 | CCCC1(c2cc(Cl)ccc2CN(C(=O)c2c(C(F)F)nn(C)c2F)C2CC2)CC1 [I.128]
17 | 3.41 | Cn1nc(C(F)F)c(C(=O)N(Cc2ccc(F)cc2C2(C(F)F)CC2)C2CC2)c1F [I.144]
18 | 4.51 | Cn1nc(C(F)F)c(C(=O)N(Cc2ccc(C3CC3)cc2C2(C)CC2)C2CC2)c1F [I.020]
19 | 5.03 | CCCC1(c2ccc(C)cc2CN(C(=O)c2c(C(F)F)nn(C)c2F)C2CC2)CC1 [I.130]
20 | 4.93 | Cn1nc(C(F)F)c(C(=O)N(Cc2ccc(-c3ccccc3)cc2C2(C)CC2)C2CC2)c1F [I.033]

Same assay, conditions: Table 3 (amines of formula II); HPLC C 18, 40° C., 0.1% aqueous formic acid and acetonitrile

Row | Compound | chromatographic logP
21 | Cc1ccc(C2(C#C[Si](C)(C)C)CC2)c(CNC2CC2)c1 [II.19, N-(5-methyl-2-{1-[(trimethylsilyl)ethynyl]cyclopropyl}benzyl)cyclopropanamine] | 2.05

Same assay, conditions: reversed-phase HPLC column (C 18); Table 3 (amines of formula II); HPLC C 18, 40° C., 0.1% aqueous formic acid and acetonitrile

Row | chromatographic logP | Compound
22 | 1.1 | FC(F)C1(c2cccc(Br)c2CNC2CC2)CC1 [II.41, N-{2-bromo-6-[1-(difluoromethyl)cyclopropyl]benzyl}cyclopropanamine]
23 | 1.09 | Cc1ccc(C2(C(F)F)CC2)c(CNC2CC2)c1 [II.40, N-{2-[1-(difluoromethyl)cyclopropyl]-5-methylbenzyl}cyclopropanamine]
24 | 1.34 | Cc1ccc(C2(Cl)CC2)c(CNC2CC2)c1 [II.34, N-[2-(1-chlorocyclopropyl)-5-methylbenzyl]cyclopropanamine]
25 | 1.3 | FC(F)C1(c2ccc(Br)cc2CNC2CC2)CC1 [II.37, N-{5-bromo-2-[1-(difluoromethyl)cyclopropyl]benzyl}cyclopropanamine]
26 | 1.15 | C#CC1(c2ccc(C)cc2CNC2CC2)CC1 [II.17, N-[2-(1-ethynylcyclopropyl)-5-methylbenzyl]cyclopropanamine]
27 | 1.67 | Cc1ccc(C2(C3CC3)CC2)c(CNC2CC2)c1 [II.35, N-{2-[1,1′-bi(cyclopropyl)-1-yl]-5-methylbenzyl}cyclopropanamine]

Same assay, conditions: reversed-phase HPLC column (C 18); Table 4 (aldehydes of formula IV); HPLC C 18, 40° C., 0.1% aqueous formic acid and acetonitrile

Row | chromatographic logP | Compound
28 | 2.56 | COc1cc(C=O)c(C2(C)CC2)cc1OC [IV.08, 4,5-dimethoxy-2-(1-methylcyclopropyl)benzaldehyde]

Same assay, conditions: reversed-phase HPLC column (C 18); preparation examples

Row | chromatographic logP | Compound
29 | 4.91 | C=C(C)c1ccc(Cl)cc1Br [2-bromo-4-chloro-1-(prop-1-en-2-yl)benzene]
